One substance from patent US11965886B2, “Method of immobilizing a cell on a support using compounds comprising a polyethylene glycol moiety” (Roche Diagnostics Operations, Inc., priority 2013, dated 2024) can be followed below.

Several values for one entry are separate records, joined by “and”; a condition that tells them apart may be missing. Equal values may be shown once.

The test system of assay [1] is WBCs. As to the kind of experiment: Immobilization of cells: recovery rate of cells on SA (streptavidin) plate or untreated plate (Example 3). The assay is classed as cell-based. On the procedure:
The following applies for modular description of the compounds below: X=hydrophobic moiety, […]=fluorescein In the following experiment, the recovery rate of cells was determined.

Assay [2] relates to MDAs in WBCs. Nature of the assay: Immobilization of cells: recovery rate of MDAs spiked in WBCs on SA-plate (Example 3). In kind it is cell-based. On the procedure: The following applies for modular description of the compounds below:
X=hydrophobic moiety, Y=PEG2000, Z=Biotin-TEG, F=Fluos=fluorescein
In the following experiment, the recovery rate of cells was determined.

Consider “5′-CholesterylTEG-CholesterylTEG-PEG2000-Fluos-BiotinTEG-3′ [29.891180]”, for which the “Recovery rate treated cells (SA-plate)” value in assay [1] (2.16 μg/2 × 10e6 WBCs) was 78.6%; in assay [1] (21.6 μg/2 × 10e6 WBCs), 68.6%; in assay [1] (216 μg/2 × 10e6 WBCs), 50.1%; in assay [1] (5 × 10e5 WBCs (MDA spiking experiment)), 70.0% and 70.8%; in assay [1] (10e6 WBCs (MDA spiking experiment)), 69.4%; in assay [1] (200 μl Zellsus.) it was 67.6% and 71.9%. Besides, the “Recovery rate treated cells (SA-plate)” value is 78.4% and 84.1% in assay [1] (400 μl Zellsus.); 81.6% in assay [1] (10 min 4° C.); 88.3% in assay [1] (10 min RT); 81.1% and 86.4% in assay [1] (800 μl Zellsus.); 81.7% in assay [1] (60 min 4° C.); 85.5% in assay [1] (60 min RT). Also, the “Recovery rate treated cells (SA-plate)” value in assay [2] (10e4 MDAs in WBCs) is 99.0%; in assay [2] (20e3 MDAs in WBCs), 102.0%; in assay [2] (40e3 MDAs in WBCs) it was 102.0%. For the same substance, the “Recovery rate treated cells (untreated-plate)” value in assay [1] (cells treated with compound, untreated plate) worked out at 56.7%.
